Like-named read-outs stand apart in the source and are kept apart here.
Tests used:
[1] = molecular target: T1, human κ receptors (Homo sapiens, UniProt P41145); experiment: Binding assay, cloned human κ receptor membranes (125I-DPDYN displacement)
T1 construct: expressed in transfected cells; host or cells: human 293S cells, geneticin-selected

[2] = molecular target: T2, human δ receptors (Homo sapiens, UniProt P41143); experiment: Binding assay, cloned human δ receptor membranes (125I-Deltorphin II displacement)
T2 construct: expressed in transfected cells
T2 sequence (P41143 whole entry): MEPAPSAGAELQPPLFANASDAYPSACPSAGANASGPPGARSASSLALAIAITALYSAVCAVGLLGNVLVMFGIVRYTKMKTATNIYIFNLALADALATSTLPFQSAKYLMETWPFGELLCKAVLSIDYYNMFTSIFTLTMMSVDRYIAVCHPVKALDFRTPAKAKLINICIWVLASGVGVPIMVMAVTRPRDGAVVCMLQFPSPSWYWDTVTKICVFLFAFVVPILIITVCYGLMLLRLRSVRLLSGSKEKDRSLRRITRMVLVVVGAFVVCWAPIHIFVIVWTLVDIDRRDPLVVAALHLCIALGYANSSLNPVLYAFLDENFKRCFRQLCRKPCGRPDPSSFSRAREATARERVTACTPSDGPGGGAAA

[3] = molecular target: T2, human δ receptors; experiment: GTP[γ]35S binding functional assay, HEK-293S membranes expressing cloned human δ receptors; type: biochemical; conditions: for Emax: relative to standard δ agonist SNC80
Description: (§1) The agonist activity of the compounds is measured by determining the degree to which the compounds receptor complex activates the binding of GTP to G-proteins to which the receptors are coupled. In the GTP binding assay, GTP[γ]^35S is combined with test compounds and membranes from HEK-293S cells expressing the cloned human opioid receptors or from homogenised rat or mouse brain. Agonists stimulate GTP[γ]^35S binding in these membranes. The EC50 and Emax values of compounds are determined from dose-response curves. Right shifts of the dose response curve by the delta antagonist naltrindole are performed to verify that agonist activity is mediated through delta receptors. For human δ receptor functional assays, EC50 (low) is measured when the human δ receptors used in the assay were expressed at lower levels in comparison with those used in determining EC50 (high). The Emax values were determined in relation to the standard δ agonist SNC80, i.e., higher than 100% is a compound that have better efficacy than SNC80.
(§2) Rat brain membranes are thawed at 37° C., passed 3 times through a 25-gauge blunt-end needle and diluted in the GTPγS binding (50 mM Hepes, 20 mM NaOH, 100 mM NaCl, 1 mM EDTA, 5 mM MgCl2, pH 7.4, Add fresh: 1 mM DTT, 0.1% BSA). 120 μM GDP final is added membranes dilutions. The EC50 and Emax of compounds are evaluated from 10-point dose-response curves done in 300 μl with the appropriate amount of membrane protein (20 μg/well) and 100000-130000 dpm of GTPγ^35S per well (0.11-0.14 nM). The basal and maximal stimulated binding are determined in absence and presence of 3 μM SNC-80. The assay performed on HEK 293s cells stably expressing cloned Delta receptors is done in a slightly different buffer (50 mM Hepes, 20 mM NaOH, 200 mM NaCl, 1 mM EDTA, 5 mM MgCl2, pH 7.4, Add fresh: 0.5% BSA, no DTT) and with a 3 μM final conc. of GDP.

[4] = molecular target: T3, δ receptors in rat brain membranes (Rattus norvegicus, UniProt P33533); experiment: Rat brain GTP[γ]35S binding functional assay; type: biochemical; conditions: for Emax: Table 1, rat brain membranes, relative to SNC80
T3 construct: membranes from HEK-293S cells expressing the cloned human opioid receptors or from homogenised rat or mouse brain; from tissue; host or cells: rat brain homogenate membranes
T3 sequence (P33533 whole entry): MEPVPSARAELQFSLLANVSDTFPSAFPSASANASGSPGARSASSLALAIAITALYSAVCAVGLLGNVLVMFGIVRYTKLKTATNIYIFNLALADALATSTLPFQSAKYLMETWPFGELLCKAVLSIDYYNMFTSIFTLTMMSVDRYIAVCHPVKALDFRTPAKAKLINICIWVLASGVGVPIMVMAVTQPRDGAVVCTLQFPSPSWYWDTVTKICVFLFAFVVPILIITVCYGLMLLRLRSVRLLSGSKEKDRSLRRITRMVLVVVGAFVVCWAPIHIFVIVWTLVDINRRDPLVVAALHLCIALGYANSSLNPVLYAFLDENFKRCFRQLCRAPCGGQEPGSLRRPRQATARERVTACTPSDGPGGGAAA
Description: Rat brains are weighed and rinsed in ice-cold PBS (containing 2.5 mM EDTA, pH 7.4). The brains are homogenized with a polytron for 30 sec (rat) in ice-cold lysis buffer (50 mM Tris, pH 7.0, 2.5 mM EDTA, with phenylmethylsulfonyl fluoride added just prior use to […] from a 0.5M stock in DMSO:ethanol).
as §1, §2

[5] = molecular target: T4, human μ receptors (Homo sapiens, UniProt P35372); experiment: Binding assay, cloned human μ receptor membranes (125I-FK33824 displacement)
T4 construct: expressed in transfected cells; host or cells: human 293S cells, geneticin-selected
T4 sequence (P35372 whole entry): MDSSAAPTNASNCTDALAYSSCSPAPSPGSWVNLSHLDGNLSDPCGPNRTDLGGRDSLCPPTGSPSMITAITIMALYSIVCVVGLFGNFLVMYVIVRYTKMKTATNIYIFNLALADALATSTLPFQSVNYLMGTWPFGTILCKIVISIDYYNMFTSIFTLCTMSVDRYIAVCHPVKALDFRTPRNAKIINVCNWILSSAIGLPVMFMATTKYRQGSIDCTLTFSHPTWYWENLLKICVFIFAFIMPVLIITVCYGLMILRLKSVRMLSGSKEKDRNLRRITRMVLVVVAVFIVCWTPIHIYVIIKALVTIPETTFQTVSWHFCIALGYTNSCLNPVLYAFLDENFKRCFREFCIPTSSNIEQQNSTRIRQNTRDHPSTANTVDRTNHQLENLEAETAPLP

[6] = Table 2, read-out: Human κ IC50
[7] = Table 2, lower receptor expression, read-out: Human δ % EMax (low)
[8] = Table 1, higher receptor expression, read-out: Human δ % EMax (high)

T1 sequence (P41145 whole entry): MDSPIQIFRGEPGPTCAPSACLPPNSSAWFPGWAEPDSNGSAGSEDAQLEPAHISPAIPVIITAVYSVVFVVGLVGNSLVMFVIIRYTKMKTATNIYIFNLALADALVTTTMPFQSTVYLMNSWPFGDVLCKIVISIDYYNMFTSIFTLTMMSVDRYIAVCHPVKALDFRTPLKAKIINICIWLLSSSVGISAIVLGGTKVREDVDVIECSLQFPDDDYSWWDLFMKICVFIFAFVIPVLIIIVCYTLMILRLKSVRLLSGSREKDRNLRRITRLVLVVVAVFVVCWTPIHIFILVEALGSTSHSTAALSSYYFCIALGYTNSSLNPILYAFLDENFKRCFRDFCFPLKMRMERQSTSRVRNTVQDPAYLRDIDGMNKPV

Compound | IC50 [1, 6] [nM] | IC50 [2] [nM] | Emax [3, 7] [%] | IC50 [1] [nM] | EC50 [3] [nM] | Emax [3, 8] [%] | EC50 [4] [nM] | Emax [4] [%] | IC50 [5] [nM]
CCN(CC)C(=O)c1ccc(C(=C2CCN(Cc3cccs3)CC2)c2cccc(NC(C)=O)c2)cc1 [Compound 1, 4-{[3-(acetylamino)phenyl][1-(thien-2-ylmethyl)piperidin-4-ylidene]methyl}-N,N-diethylbenzamide] | 5830 to 9070 | 0.19 to 1.49 | 80 to 112 |  |  |  |  |  | 
CCN(CC)C(=O)c1ccc(C(=C2CCN(Cc3ccco3)CC2)c2cccc(NC(C)=O)c2)cc1 [Compound 2, 4-{[3-(acetylamino)phenyl][1-(2-furylmethyl)piperidin-4-ylidene]methyl}-N,N-diethylbenzamide] | 5830 to 9070 | 0.19 to 1.49 | 80 to 112 |  |  |  |  |  | 
CCN(CC)C(=O)c1ccc(C(=C2CCN(Cc3ccccc3)CC2)c2cccc(NC(C)=O)c2)cc1 [Compound 3, 4-[[3-(acetylamino)phenyl][1-(phenylmethyl)-4-piperidinylidene]methyl]-N,N-diethyl-benzamide] |  | 0.34 to 0.59 |  | 2470 to 8000 | 1.46 to 2.65 | 95 to 98 | 7.2 to 15.8 | 126 to 137 | 344 to 368
CCN(CC)C(=O)c1ccc(C(=C2CCN(Cc3ccsc3)CC2)c2cccc(NC(C)=O)c2)cc1 [Compound 4, 4-[[3-(acetylamino)phenyl][1-(3-thienylmethyl)-4-piperidinylidene]methyl]-N,N-diethyl-benzamide] |  | 0.34 to 0.59 |  | 2470 to 8000 | 1.46 to 2.65 | 95 to 98 | 7.2 to 15.8 | 126 to 137 | 344 to 368
CCN(CC)C(=O)c1ccc(C(=C2CCN(Cc3cccnc3)CC2)c2cccc(NC(C)=O)c2)cc1 [Compound 5, 4-[[3-(acetylamino)phenyl][1-(3-pyridinylmethyl)-4-piperidinylidene]methyl]-N,N-diethyl-benzamide] |  | 0.19 to 1.49 | 80 to 112 | 5830 to 9070 |  |  |  |  | 
CCN(CC)C(=O)c1ccc(C(=C2CCN(Cc3ccncc3)CC2)c2cccc(NC(C)=O)c2)cc1 [Compound 6, 4-[[-3-(acetylamino)phenyl][1-(4-pyridinylmethyl)-4-piperidinylidene]methyl]-N,N-diethyl-benzamide] |  | 0.19 to 1.49 | 80 to 112 | 5830 to 9070 |  |  |  |  | 
CCN(CC)C(=O)c1ccc(C(=C2CCN(Cc3ccccn3)CC2)c2cccc(NC(C)=O)c2)cc1 [Compound 7, 4-{[3-(acetylamino)phenyl][1-(pyridin-2-ylmethyl)piperidin-4-ylidene]methyl}-N,N-diethylbenzamide] | 5830 to 9070 | 0.19 to 1.49 | 80 to 112 |  |  |  |  |  | 
CCN(CC)C(=O)c1ccc(C(=C2CCN(Cc3cscn3)CC2)c2cccc(NC(C)=O)c2)cc1 [Compound 8, 4-{[3-(acetylamino)phenyl][1-(1,3-thiazol-4-ylmethel)piperidin-4-ylidene]methyl}-N,N-diethylbenzamide] | 5830 to 9070 | 0.19 to 1.49 | 80 to 112 |  |  |  |  |  | 
CCN(CC)C(=O)c1ccc(C(=C2CCN(Cc3cncs3)CC2)c2cccc(NC(C)=O)c2)cc1 [Compound 9, 4-{[3-(acetylamino)phenyl][1-(1,3-thiazol-5-ylmethyl)piperidin-4-ylidene]methyl}-N,N-diethylbenzamide] | 5830 to 9070 | 0.19 to 1.49 | 80 to 112 |  |  |  |  |  | 

Source: US20060154964A1, “Diarylmethylidene piperidine derivatives, preparations thereof and uses thereof” (AstraZeneca AB, priority 2003, published 2006)
